Source: patent US7148380B2, “Bio-energy muscle relaxants” (priority 2000, dated 2006)

Assays:
[1] = system: drug-induced asthma in guinea pig; assay: Asthmatic latent period / drug-induced asthma in guinea pig (acetylcholine + histamine inhalation); assay type: in vivo
Experimental: Sensitive animals were chosen by aerosolized inhalation of asthma-inducing agents—a mixed solution of 2% acetylcholine with 0.1% histamine for 15 sec., inducing an asthmatic attack with severe difficulty in respiration and finally resulting in the animal body turned down. The time from beginning of the inhalation to animal turned down was recorded as an index named “turned down time” or asthmatic latent period. Those animals with turned down time less than 120 s. were selected for the study next day. […] Then the latent period was recorded for each of the animals.
(1) Screening animals: animal was put in a glass container, a mixed solution of 2% acetylcholine and 0.1% histamine was nebulized with a pressure of 400 mmHg and inhaled by the animals for 15 sec. Following the end of the inhalation, the time between beginning of the inhalation and the animal turned down due to bronchial spasm and dyspnea was recorded as asthmatic latent period. Those animals with a latent period beyond 120 s. were excluded, and those with a latent period less than 120 s were selected for study the next day.
(4) Measuring: Repeat the inhalation at 30 min, 4 h, and 24 h after administration of the drugs respectively. Asthmatic latent period was recorded, 6 minutes were taken as the maximum, and values beyond 6 min were counted as 6 min.
(5) Data analysis: Values were expressed as mean±sd, and paired for “t” and chi-square tests. Significance was considered to be established when p<0.05.

[2] = system: contraction of bronchial smooth muscle induced by histamine; assay: By-pass-airflow pressure, bronchial smooth muscle contraction induced by histamine; assay type: in vivo, guinea pig
Experimental: The animals were divided as saline, BDM, and aminophylline groups. Each animal was anesthetized with pentobarbital (30 mg/kg, I.P.), the trachea was intubated and connected to respirator. Tidal volume and frequency of the respirator were adjusted to 6˜10 ml and 60˜70 breath/min. respectively.
A small hole on chest wall of the animal was made, resulting in pneumothorax to inhibit spontaneous respiration of the animal. A modified device was used for measuring by-pass-airflow pressure of the airway, reflecting alteration in airway resistance, therefore evaluating status of bronchial smooth muscle contraction induced by histamine. The by-pass-airflow pressures were measured before and at 10, 20, 30, 40, 50, and 60 min after administration of histamine (5˜10 μg, I.P.) as control values. […] Changes in by-pass-airflow pressure caused by histamine before and after saline, BDM, or aminophylline were compared.
A percentage of changes in the airflow pressures before and after administration of the histamine at different time points, defined as the change rate, was calculated according to formula 1 below: Change rate (%)=(PA−PB)/PB×100% (1)
where PA is the airflow pressure after histamine, PB is the pressure before histamine. Values were expressed as mean±SD, paired or group “t” test was used upon the requirement for the statistical analysis. The results were considered significant when p<0.05.

[3] = 10 ml/kg I.P. (BDM 0.2M, aminophylline 1.25%), mean±sd
[4] = after drug 10 ml/kg I.P., 10 min after histamine
[5] = after drug 10 ml/kg I.P., 20 min after histamine
[6] = after drug 10 ml/kg I.P., 30 min after histamine
[7] = after drug 10 ml/kg I.P., 40 min after histamine
[8] = after drug 10 ml/kg I.P., 50 min after histamine
[9] = after drug 10 ml/kg I.P., 60 min after histamine
[10] = before drug administration, 10 min after histamine
[11] = before drug administration, 20 min after histamine
[12] = before drug administration, 30 min after histamine
[13] = before drug administration, 40 min after histamine
[14] = before drug administration, 50 min after histamine
[15] = before drug administration, 60 min after histamine

Structure (SMILES): Cn1c(=O)c2[nH]cnc2n(C)c1=O [Aminophylline, aminophylline, reference compound]
- Asthamatic Latent Period, 30 minutes after administration ([1]; 10 ml/kg I.P. (BDM 0.2M, aminophylline 1.25%), maximum 6 min, mean±sd): 298.2 ± 138.2 s
- Asthamatic Latent Period, 4 hours after administration [1, 3]: 216.6 ± 112.5 s
- Asthamatic Latent Period, 24 hours after administration [1, 3]: 96 ± 26.9 s
- Incidence of asthmatic spasm ([1]; 30 min after administration, down from 100%, not significant): 40%
- Asthamatic Latent Period, before administration ([1]; baseline before drug, 10 ml/kg I.P. (BDM 0.2M, aminophylline 1.25%), mean±sd): 70.6 ± 27.7 s
- Effect on the latent period ([1]; thirty minutes and 4 h after administration, p<0.05): significantly extended
- by-pass-airflow pressure, A, B. Hist ([2]; after drug 10 ml/kg I.P. (BDM 0.2M, aminophylline 1.25%), before histamine): 4.24 ± 1.18 Kpa
- by-pass-airflow pressure, A, Hist 10 min. [2, 4]: 4.36 ± 1.10 Kpa
- changing rate of by-pass-airflow pressure, A, Hist 10 min. [2, 4]: −7.68%
- by-pass-airflow pressure, A, Hist 20 min. [2, 5]: 4.18 ± 0.86 Kpa
- changing rate of by-pass-airflow pressure, A, Hist 20 min. [2, 5]: −10.62%
- by-pass-airflow pressure, A, Hist 30 min. [2, 6]: 4.20 ± 0.92 Kpa
- changing rate of by-pass-airflow pressure, A, Hist 30 min. [2, 6]: −10.40%
- by-pass-airflow pressure, A, Hist 40 min. [2, 7]: 4.15 ± 0.88 Kpa
- changing rate of by-pass-airflow pressure, A, Hist 40 min. [2, 7]: −11.38%
- by-pass-airflow pressure, A, Hist 50 min. [2, 8]: 4.10 ± 0.92 Kpa
- changing rate of by-pass-airflow pressure, A, Hist 50 min. [2, 8]: −12.73%
- by-pass-airflow pressure, A, Hist 60 min. [2, 9]: 4.02 ± 0.92 Kpa
- changing rate of by-pass-airflow pressure, A, Hist 60 min. [2, 9]: −14.25%
- histamine-induced increase in the airflow pressure ([2]; at 10, 20, 30, 40, 50, and 60 min after administration, p<0.01 or p<0.05): significantly reduce
- by-pass-airflow pressure, B, Hist 10 min. [2, 10]: 4.51 ± 0.65 Kpa
- changing rate of by-pass-airflow pressure, B, Hist 10 min. [2, 10]: 8.37%
- by-pass-airflow pressure, B, Hist 20 min. [2, 11]: 4.34 ± 0.73 Kpa
- changing rate of by-pass-airflow pressure, B, Hist 20 min. [2, 11]: 3.93%
- by-pass-airflow pressure, B, Hist 30 min. [2, 12]: 4.40 ± 0.79 Kpa
- changing rate of by-pass-airflow pressure, B, Hist 30 min. [2, 12]: 5.31%
- by-pass-airflow pressure, B, Hist 40 min. [2, 13]: 4.42 ± 0.80 Kpa
- changing rate of by-pass-airflow pressure, B, Hist 40 min. [2, 13]: 5.80%
- by-pass-airflow pressure, B, Hist 50 min. [2, 14]: 4.42 ± 0.86 Kpa
- changing rate of by-pass-airflow pressure, B, Hist 50 min. [2, 14]: 5.63%
- by-pass-airflow pressure, B, Hist 60 min. [2, 15]: 4.46 ± 0.87 Kpa
- changing rate of by-pass-airflow pressure, B, Hist 60 min. [2, 15]: 6.54%
- by-pass-airflow pressure, B, B. Hist ([2]; before drug administration, before histamine): 4.18 ± 0.72 Kpa
- changing rate of by-pass-airflow pressure, D, Hist 10 min. ([2]; difference A minus B, 10 min after histamine): −16.05%
- changing rate of by-pass-airflow pressure, D, Hist 20 min. ([2]; difference A minus B, 20 min after histamine): −14.55%
- changing rate of by-pass-airflow pressure, D, Hist 30 min. ([2]; difference A minus B, 30 min after histamine): −15.71%
- changing rate of by-pass-airflow pressure, D, Hist 40 min. ([2]; difference A minus B, 40 min after histamine): −17.19%
- changing rate of by-pass-airflow pressure, D, Hist 50 min. ([2]; difference A minus B, 50 min after histamine): −18.36%
- changing rate of by-pass-airflow pressure, D, Hist 60 min. ([2]; difference A minus B, 60 min after histamine): −20.79%
